From patent US10858397B2, “Peptide inhibitors of telomerase translocation and therapeutic uses thereof” (THE MEDICAL COLLEGE OF WISCONSIN, INC., priority 2015, dated 2020)
Where a SMILES comes first, the peptide text is derived from it. Primed or numbered codes have the meaning given here. The star is where a group is joined. PEG12′ = C-terminal PEG12 polyethylene glycol (PEGylation) moiety, followed by a C-terminal amide; 5FAM = O=C1OC2(c3ccc(O)cc3Oc3cc(O)ccc32)c2ccc(C(=O)*)cc21

What was measured:
[1] = system: H1299 non-small cell lung carcinoma cells; assay: Uptake of 5-FAM labeled peptide by H1299 cells (microscopy); format: cell-based, human; conditions: 50 or 100 μM, 8 h
Description: (§1) FIGS. 2A-2B. (A) Dissected human microvessels are shown. The top panels are brightfield images, while the bottom three panels are images of the same vessels under laser excitation with a filter to visualize emission from 5-FAM. Vessels were treated with 5-FAM labeled peptide (nucXTERT-W) at a 10 uM concentration for 8 hours (h), or left untreated (control). (B) H1299 non-small cell lung carcinoma cells were seeded onto slides and treated with 0, 50, or 100 μM 5-FAM labeled nucXTERT-W for 8 h. DAPI=blue; 5-FAM labeled peptide=green.
The NCI-H1299 cell line was used for the cell culture experiments described in this manuscript. Cells were cultured in RPMI (Invitrogen) supplemented with 10% fetal bovine serum (Sigma).
One of the first hurdles that required consideration when evaluating the ability of novel peptides to alter telomerase localization is their ability to be internalized by living tissues. nucXTERT was labeled with 5-carboxyfluorescein (5-FAM). Isolated human microvessels incubated with the 5-FAM labeled peptide were analyzed by microscopy. Robust signal is present in vessels pulsed with the peptide, while vessels not treated with peptide have no signal. […] Since peptide is taken up by vessels, it was possible to study the effect of peptide treatment on vessel physiology, using human microvessels as described in the methods. […]

human microvessels [2] = assay: Uptake of 5-FAM labeled peptide by isolated human microvessels (microscopy); conditions: 10 uM, 8 h
Description: as §1
Peptide synthesis was conducted by GeneMed Synthesis (San Antonio, Tex.). All peptide sequences were verified by mass spectrometry, and were only used at a purity of greater than 95%. Lyophilized peptides were stored at −20 degrees Celsius. Given the charge properties of the peptides used in these studies, phosphate buffered saline (PBS) was selected as the solvent of choice to dissolve all peptides used. […]
One of the first hurdles that required consideration when evaluating the ability of novel peptides to alter telomerase localization is their ability to be internalized by living tissues. nucXTERT was labeled with 5-carboxyfluorescein (5-FAM). Isolated human microvessels incubated with the 5-FAM labeled peptide were analyzed by microscopy. […]

human microvessels [3] = assay: ACh-induced dilation of isolated human microvessels with or without ANG II challenge; conditions: for protection of ACh-induced vasodilation from ANG II: overnight pre-treatment, ANG II 10 nM 30 min
Description: (§2) Microvessels were dissected from surgical discard tissues, predominantly consisting of adipose. Only vessels with a diameter of less than 300 micrometers were selected for further study. All microvessels were obtained from discarded surgical tissues, in accordance with an Institutional Review Board approved protocols (PRO00000114, PRO00010828, PRO00001094) at the Medical College of Wisconsin, Milwaukee, Wis.
(§3) After dissection, vessels were incubated overnight in complete endothelial cell media, supplemented with 5% fetal bovine serum (Lonza) with or without peptides as described. Following overnight incubation, peptides were washed out and vessels were cannulated and transferred to physiological salt solution. A video microscopy setup enabled monitoring of vessels in real time. Vessels were pre-constricted with endothelin-1 (ET-1) at a dose range of 0.1-1 nM. Only vessels capable of constricting at least 20% from baseline were included in the study. Flow-mediated dilation (FMD) and Ach-induced dilation were then evaluated, followed by evaluation of endothelium-independent dilation to papaverin. After establishing this baseline, vessels were pre-constricted again with ET-1 and dilator curves repeated in the presence of Angiotensin II (ANG II), as described below.
(§4) Baseline vessel parameters, including ability to dilate in response to FMD, as described above were assessed. Following assessment, vessels were treated with ANG II at a final concentration of 10 nM for 30 minutes before FMD and response to ACh was re-assessed.

human microvessels [4] = assay: Flow-mediated dilation (FMD) of isolated human microvessels with or without ANG II challenge; conditions: for protection of flow-mediated vasodilation from ANG II: overnight pre-treatment, ANG II 10 nM 30 min; for baseline vessel constriction, % of maximum diameter: after 10 minutes of ET-1 treatment
Description: as §2, §3
FMD was evaluated by adjusting the heights of two reservoirs in equal and opposite directions to generate flow by altering vessel central pressure. After each change in pressure gradient, vessel diameter was measured and assessed using video microscopy. Prior to measuring FMD, all vessels studied were pre-constricted using endothelin-1.
as §4

[5] = system: human microvessels of healthy donors; assay: Mechanism of FMD (L-NAME / PEG-Catalase) in microvessels from healthy (non-CAD) donors
Description: (§5) Live human microvessels were dissected from adipose from individuals with clinically confirmed coronary artery disease (CAD). Vessels were treated with nucXTERT in the presence of either vehicle or L-NAME or PEG-Catalase. Response to pressure gradient (flow) stimulus was evaluated. Microvessels from the adipose of healthy human donors was treated with either vehicle or mitoXTERT with or without NG-nitro-L-arginine methyl ester (L-NAME) or PEG-Catalase. The ability of the vessels to dilate in response to a pressure gradient (flow) was assessed.
FIGS. 7A-7C show dose titration of PEGylated nucXTERT-E in isolated vessel studies. nucXTERT with S→E substitution was PEGylated at the C-terminus to increase bio stability and cell permeability. Effective doses from 10 μM to 1 nM were tested. PEGylated peptide could be titrated down to 1 nM with vascular protective effects. […] N=3-4.
(§6) Dependence of vessels on NO versus hydrogen peroxide signaling in dilation was assessed using the pharmacologic agents Nw-nitro-L-arginine methyl ester (L-NAME; 100 μmol/L) and polyethylene glycol-catalase (PEG-catalase; 500 U/mL), respectively, where described.

[6] = system: ANG II induced endothelial dysfunction; assay: In vivo ANG II infusion model of hypertension and endothelial dysfunction; set-up: species or system mice
Description: Mice were treated with commonly used stressors to induce hypertension and endothelial dysfunction. The fast pressor dose of ANG II (1000 ng/kg/min) was infused via osmotic mini-pump for 14 days. A subgroup of animals was co-treated with nucXTERT (30 μg/day via osmotic mini-pump) in addition to ANG II, for the same duration and using the same delivery system. Curves were compared to historic controls (vehicle). […] Smooth muscle-dependent dilation in response to vasodilator papaverin was not effected (data not shown). * P<0.05 vs. Vehicle one way ANOVA RM, N=5).
To test in vivo effects of nucXTERT mice were treated with commonly used stress to induce hypertension and endothelial dysfunction. The fast pressor dose of ANG II (1000 ng/kg/min) was infused via osmotic minipump for 14 days. A subgroup of animals was co-treated with nucXTERT (30 μg/day via osmotic mini pump) in addition to ANG II, for the same duration and using the same delivery system. Curves were compared to historic controls (vehicle). […] Smooth muscle dependent dilation to papaverin was not effected (data not shown).

[7] = system: human microvessels from individuals with coronary artery disease (CAD); assay: Mechanism of FMD (L-NAME / PEG-Catalase) in microvessels from donors with coronary artery disease; conditions: vessels pretreated with peptide
Description: as §5, §6
At baseline, these vessels respond to vasodilatory stimuli through the use of H2O2 as a signaling mechanism to enable dilation. Treatment of vessels with PEG-Catalase, a scavenger of H2O2 effectively attenuates vasodilation. […] In vessels from subjects with CAD, H2O2 represents the dominant vasodilator.

[8] = 30 μg/day via osmotic mini pump, 14 days, ANG II 1000 ng/kg/min

CC(C)C[C@H](NC(=O)[C@H](CO)NC(=O)[C@H](CCCNC(=N)N)NC(=O)[C@H](CO)NC(=O)[C@H](C)NC(=O)[C@H](CO)NC(=O)CNC(=O)CNC(=O)[C@H](CCCNC(=N)N)NC(=O)[C@H](CCCNC(=N)N)NC(=O)[C@H](CCCNC(=N)N)NC(=O)c1ccc2c(c1)C(=O)OC21c2ccc(O)cc2Oc2cc(O)ccc21)C(=O)N1CCC[C@H]1C(=O)N[C@@H](CC(C)C)C(=O)N1CCC[C@H]1C(=O)N[C@@H](CCCCN)C(=O)N[C@@H](CCCNC(=N)N)C(=O)N1CCC[C@H]1C(=O)N[C@@H](CCCNC(=N)N)C(=O)N[C@@H](CCCNC(=N)N)C(=O)O [5-FAM labeled peptide] (5FAM-RRRGGSASRSLPLPKRPRR-OH; N-terminus and C-terminus assumed)
uptake of labeled peptide into cells [1]: effectively traffics into the cell
5-FAM signal in vessels pulsed with peptide (uptake by living tissue) (human microvessels [2]): Robust signal

C/C(=C\C(=O)Nc1ccccc1C(=O)O)c1ccc2ccccc2c1 [BIBR1532, reference compound]
vasodilation in response to acetylcholine (human microvessels [3]; overnight treatment, no ANG II): effectively eliminates vasodilation in response to acetylcholine
vasodilation in response to flow stimulus (human microvessels [4]; overnight treatment, no ANG II): continue to dilate in response to flow stimulus

Ac-CGGRRRGGEASRSLPLPKRPRR-peg12-amide (Ac-CGGRRRGGEASRSLPLPKRPRR-{PEG12′-NH2}) [PEGylated peptide, nucXTERT with S→E substitution PEGylated at the C-terminus]
lowest dose with vascular protective effects (dose titration) (human microvessels [4]; doses from 10 μM to 1 nM tested): 1 nM
protection of flow-mediated vasodilation from ANG II (human microvessels [4]): protected against ANG II induced endothelial dysfunction
mechanism of FMD in non-CAD vessels (L-NAME inhibitable) ([5]; non-CAD vessels): did not alter

MPRAPRCRAVRSLLRSHYRE (listed as Homo sapiens) [mitoXTERT, decoy peptide containing regions of the telomerase MLS]
protection of ACh-induced vasodilation from ANG II (human microvessels [3]): no protection of the endothelium from ANG II stress
protection of flow-mediated vasodilation from ANG II (human microvessels [4]): no protection of the endothelium from ANG II stress
mechanism of dilation in healthy vessels ([5]; treated with peptide, with or without L-NAME or PEG-Catalase): from NO-mediated dilation to H2O2-dependent dilation

RRRGGAASRSLPLPKRPRR (phospho-deficient nucXTERT-A)
protection of ACh-induced vasodilation from ANG II (human microvessels [3]): does not protect vessels from attenuation of vasodilator capacity
baseline vessel constriction, % of maximum diameter (human microvessels [4]): 53±12%
protection of flow-mediated vasodilation from ANG II (human microvessels [4]): does not protect vessels from attenuation of vasodilator capacity

RRRGGEASRSLPLPKRPRR (phosphomimetic nucXTERT-E) [phosphomimetic containing a glutamic acid substitution at position 227]
protection of ACh-induced vasodilation from ANG II (human microvessels [3]): prevents ANG II-induced endothelial dysfunction
baseline vessel constriction, % of maximum diameter (human microvessels [4]): 48±18%
protection of flow-mediated vasodilation from ANG II (human microvessels [4]): prevents ANG II-induced endothelial dysfunction

RRRGGSASRSLPLPKRPRR (listed as Homo sapiens) [nucXTERT]
protection of ACh-induced vasodilation from ANG II (human microvessels [3]): not impacted by ANG II treatment
protection of flow-mediated vasodilation from ANG II (human microvessels [4]): not impacted by ANG II treatment
FMD under ANG II [6, 8]: prevented onset of ANG II induced endothelial dysfunction
agonist (ACh) induced endothelium-dependent dilation under ANG II [6, 8]: prevented onset of ANG II induced endothelial dysfunction
smooth muscle dependent dilation to papaverin ([6]; data not shown): not effected
effect of PEG-Catalase on dilation responses in CAD vessels [7]: no longer inhibits dilation responses
main mechanism of FMD in CAD vessels [7]: NO is restored as the main mechanism of FMD
